Active and inactive are the calls of the source.
Assays:
Format in all cases: functional, organism-based
Saccharomyces cerevisiae = test: Antimicrobial activity against Saccharomyces cerevisiae at 150 ug/disk
Escherichia coli = test: Antimicrobial activity against Escherichia coli at 150 ug/disk
Bacillus subtilis = test: Antimicrobial activity against Bacillus subtilis at 150 ug/disk
[1] = system: Cladosporium cladosporioides; test: Antimicrobial activity against Cladosporium cladosporioides at 150 ug/disk
Bacillus cereus = test: Antimicrobial activity against Bacillus cereus at 150 ug/disk

Measured: Activity

COc1ccc([C@@H](O)[C@H](C)O)cc1Cl
inactive: all assays above

Source: ChEMBL document CHEMBL1159282, “Secondary Mold Metabolites, Part 49. Isolation, Structural Elucidation, and Biomimetic Synthesis of Trametol, a New 1-Arylpropane-1,2-diol Produced by the Fungus Trametes sp” (J Nat Prod, 1995)
